Experimental data: patent US12357561B2, “Compositions and uses of alpha-adrenergic agents” (LEVATION PHARMA LTD., priority 2016, dated 2025)

System: New Zealand rabbits
Assay: Ocular observations after injection of oxymetazoline solutions into the post-septal fat pad of rabbits
Assay type: in vivo, rabbit
Conditions: for Palpebral Reflex / Threat Test: 100 μl post-septal fat pad injection; for Palpebral Reflex / Threat Test / eyelid closure (notes): Right Eye
Protocol: Rabbits without ocular pathology received oxymetazoline solutions by ocular injection. The evolution was tested postoperative, 1, 2, 3, 7, 10, and 14 day after oxymetazoline solutions administration. Eyelids were analyzed by histology at the end of the experiment. Endpoints included inflammation, fibrosis, pre- and post-septal fat, status of levator muscle and Müller's muscle, presence of vascular injury or necrosis or ischemic injury to eyelid tissues.
• Animals: female New Zealand rabbits (2.5-3 kg) • Sedation: atropine sulfate and midazolam IV (ear vein) • Anesthesia: induction with Propofol 1% (10 mg/kg) by ear vein • Maintenance with isoflurane (inhalant anesthesia) • Oxymetazoline solutions • Slit lamp Method Baseline Measures (1st Phase) • I. Animals (n=2); 2.5-3 kg New Zealand rabbit • II. Without sedation and anesthesia • III. Photographic record with a ruler (to serve as a standard measure of distance). Three sets of photos per measurements taken in dim lighting to keep rabbits from squinting • IV. 50 μl of 10% phenylephrine was administered via topical into the right eye (RE) • V. Photographic record with a ruler. Three sets of photos per measurements. After 20-30 minutes post-dose. • VI. Animals returned to animal housing. Test Article (Oxymetazoline Solutions) (2nd Phase) • I. Animals (n=3/each group); 2.5-3 kg New Zealand rabbit • II. Photographic record with a ruler (to serve as a standard measure of distance). Three sets of photos per measurements taken in dim lighting to keep rabbits from squinting. • III. Sedation with atropine sulfate and midazolam • IV. Induction with Propofol • V. Maintenance with isoflurane • VI. Ocular injection of oxymetazoline solutions or PBS (phosphate-buffered saline) • a. Group A: oxymetazoline 1 mg/ml in PBS (RE) and PBS (LE) • b. Group B: oxymetazoline 3 mg/ml in PBS (RE) and PBS (LE) • c. Group C: oxymetazoline 10 mg/ml in PBS (RE) and PBS (LE) All animals were administered 100 μI (0.1 ml) of the oxymetazoline solution (RE) or PBS vehicle control (LE) via an injection into the post-septal fat pad, adjacent to Müller's muscle of both eyelids on Day 0. For this injection, a 30G needle was used; test article was administered at least 4 mm away from the site of the needle entry to prevent reflux of fluid through the hole. • VII. Follow-up. • VIII. Euthanized animals 14 days after the injection of oxymetazoline solutions to process the eyelids tissues. • a. Harvest both eyelids from each animal and store in formalin • b. Histology (H/E staining) Follow-Up Follow-up included: • Eyelid retraction/ptosis measurements & digital photos with eyes directly facing camera and a ruler in the frame of the photograph to standardize distances. Three sets of photos per measurement taken in dim lighting to keep rabbits from squinting. • Slit-lamp biomicroscopy • Daily general health observations • Body weights prior to dosing and prior to sacrifice Study Variables • I. Palpebral fissure distance • II. Margin reflex distance 1 Results • Group A (1 mg/ml) • Notes: • pre-injection.
Group B (3 mg/ml) Notes: • pre-injection.

[1] = Group A 1 mg/ml in PBS, Day 2, animals #1/#2/#3
[2] = Group A 1 mg/ml in PBS, Day 3 morning, animals #1/#2/#3
[3] = Group A 1 mg/ml, Day 2 (3 h post-injection)
[4] = Group B 3 mg/ml in PBS, Day 2, animals #1/#2
[5] = Group B 3 mg/ml in PBS, Day 3 afternoon, animals #1/#2
[6] = Group B 3 mg/ml in PBS, Day 3 morning, animals #1/#2
[7] = Group B 3 mg/ml in PBS, Day 4 morning, animals #1/#2
[8] = Group B 3 mg/ml, Day 2 (3 h post-injection)

With `Cc1cc(C(C)(C)C)c(O)c(C)c1CC1=NCCN1` [oxymetazoline] the “Palpebral Reflex” value [1] was “Abolished/Abolished/”, the “Threat Test” value [1] was “Abolished/Abolished/” and the “Threat Test” value (Group A 1 mg/ml in PBS, Day 3 afternoon, animals #1/#2/#3) was “Delayed/Delayed/Delayed”. The “Palpebral Reflex” value [2] was “Delayed/Delayed/Delayed”, the “Threat Test” value [2] was “Abolished/Abolished/” and the “Threat Test” value (Group A 1 mg/ml in PBS, Day 4 afternoon, animals #1/#2/#3) was “Delayed/Delayed/Delayed”. For the same molecule, the “Threat Test” value (Group A 1 mg/ml in PBS, Day 4 morning, animals #1/#2/#3) was “Delayed/Delayed/Delayed”, the “ocular discomfort (notes)” value [3] was “Animal show ocular discomfort” and the “eyelid closure (notes)” value [3] was “pressure applied to close eyelid”. The “eyelid closure (notes)” value (Group A 1 mg/ml, Day 3 morning) was “pressure applied to close eyelid”, the “Palpebral Reflex” value [4] was “Abolished/Abolished” and the “Threat Test” value [4] was “Abolished/Abolished”. For the same molecule, the “Palpebral Reflex” value [5] was “Delayed/Delayed”, the “Threat Test” value [5] was “Abolished/Abolished” and the “Palpebral Reflex” value [6] was “Delayed/Delayed”. For the same molecule, the “Threat Test” value [6] was “Abolished/Abolished”, the “Threat Test” value (Group B 3 mg/ml in PBS, Day 4 afternoon, animals #1/#2) was “Delayed/Delayed” and the “Palpebral Reflex” value [7] was “Delayed/Delayed”. The “Threat Test” value [7] was “Delayed/Delayed”, the “Threat Test” value (Group B 3 mg/ml in PBS, Day 5, animals #1/#2) was “Delayed/” and the “ocular discomfort (notes)” value [8] was “Animal show ocular discomfort”. For the same molecule, the “eyelid closure (notes)” value [8] was “pressure applied to close eyelid”, the “eyelid closure (notes)” value (Group B 3 mg/ml, Day 3 afternoon) was “pressure applied to close eyelid” and the “eyelid closure (notes)” value (Group B 3 mg/ml, Day 3 morning) was “pressure applied to close eyelid”. The “eyelid closure (notes)” value (Group B 3 mg/ml, Day 4 morning) was “pressure applied to close eyelid”.
